In PubChem BioAssay (NCI):
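Five concentrations, 48 hours, 96-well plates. The concentration for full growth arrest is given as TGI.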

How the values were obtained:
Test in all cases: NCI anticancer screen, dose series, 48 h
ACHN renal = system: ACHN renal
OVCAR-3 ovarian = system: OVCAR-3 ovarian
MDA-N = system: MDA-N
T-47D breast = system: T-47D breast
COLO 205 colon = system: COLO 205 colon
CAKI-1 renal = system: CAKI-1 renal
SN12C renal = system: SN12C renal
UACC-257 melanoma = system: UACC-257 melanoma
SR leukemia = system: SR leukemia
SF-295 CNS = system: SF-295 CNS
U251 CNS = system: U251 CNS
SNB-19 CNS = system: SNB-19 CNS
OVCAR-5 ovarian = system: OVCAR-5 ovarian
MDA-MB-231 breast = system: MDA-MB-231 breast
HOP-62 NSCLC = system: HOP-62 NSCLC
NCI-H460 lung = system: NCI-H460 lung
MOLT-4 leukemia = system: MOLT-4 leukemia
PC-3 prostate = system: PC-3 prostate
NCI-H23 lung = system: NCI-H23 lung
SF-539 CNS = system: SF-539 CNS
RPMI-8226 leukemia = system: RPMI-8226 leukemia
NCI/ADR-RES ovarian = system: NCI/ADR-RES ovarian
UACC-62 melanoma = system: UACC-62 melanoma
NCI-H522 lung = system: NCI-H522 lung
EKVX NSCLC = system: EKVX NSCLC
OVCAR-8 ovarian = system: OVCAR-8 ovarian
M14 melanoma = system: M14 melanoma
A498 renal = system: A498 renal
HCT-116 colon = system: HCT-116 colon
SK-MEL-5 melanoma = system: SK-MEL-5 melanoma
A549 NSCLC = system: A549 NSCLC
SNB-75 CNS = system: SNB-75 CNS
OVCAR-4 ovarian = system: OVCAR-4 ovarian
SK-MEL-28 melanoma = system: SK-MEL-28 melanoma
K-562 leukemia = system: K-562 leukemia
LOX IMVI melanoma = system: LOX IMVI melanoma
RXF 393 renal = system: RXF 393 renal
KM12 colon = system: KM12 colon
TK-10 renal = system: TK-10 renal
IGROV1 ovarian = system: IGROV1 ovarian
SF-268 CNS = system: SF-268 CNS
MCF7 breast = system: MCF7 breast
786-0 renal = system: 786-0 renal
SW-620 colon = system: SW-620 colon
HCT-15 colon = system: HCT-15 colon
MALME-3M melanoma = system: MALME-3M melanoma
SK-MEL-2 melanoma = system: SK-MEL-2 melanoma
MDA-MB-435 = system: MDA-MB-435
HT29 colon = system: HT29 colon
HOP-92 NSCLC = system: HOP-92 NSCLC
SK-OV-3 ovarian = system: SK-OV-3 ovarian
UO-31 renal = system: UO-31 renal
DU-145 prostate = system: DU-145 prostate
CCRF-CEM leukemia = system: CCRF-CEM leukemia
HCC-2998 colon = system: HCC-2998 colon
HS 578T breast = system: HS 578T breast
NCI-H226 lung = system: NCI-H226 lung
HL-60(TB) leukemia = system: HL-60(TB) leukemia

Measured: TGI

Cc1nc(Nc2ccc(Cl)cc2Cl)sc1C(=O)Nc1ccccc1
17.4 µM: NCI-H226 lung
not listed: HL-60(TB) leukemia
> 100 µM: all other assays above

N#Cc1nc(-c2ccccc2C(=O)O)oc1N
> 100 µM: all assays above

Cc1cc(C23OC4COC(C)(C)OC4C2OC(C)(C)O3)nc2ccccc12 (stereo unspecified)
not listed: CAKI-1 renal | A498 renal
> 100 µM: all other assays above

C/C(O)=c1\cc(C#N)c(=C(C#N)C#N)nc1C
not listed: OVCAR-3 ovarian | UACC-257 melanoma | SF-295 CNS | TK-10 renal | SK-OV-3 ovarian
> 100 µM: all other assays above

COC(=O)c1cc(CC2Cc3cc4c(cc3C2)CCC4)cc2c1CCC2
94 µM: SR leukemia
55.7 µM: MOLT-4 leukemia
not listed: UACC-62 melanoma
> 100 µM: all other assays above
